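Method: 48-hour compound exposure of cells in 96-well plates, five concentrations, linear interpolation of endpoints. GI50 = concentration required for 50% inhibition of growth.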 The source made the active and inactive calls. Rule as the data show it: active = GI50 up to about 1.1 µM and inactive = higher.
How the values were obtained:
Experiment in all cases: NCI-60 cell line screen, 48 h
OVCAR-5 = system: OVCAR-5
NCI-H460 = system: NCI-H460
COLO 205 = system: COLO 205
RXF 393 = system: RXF 393
K562 = system: K562
NCI-H23 = system: NCI-H23
HOP-92 = system: HOP-92
MOLT-4 = system: MOLT-4
RPMI-8226 = system: RPMI-8226
SF-539 = system: SF-539
SK-MEL-5 = system: SK-MEL-5
DU-145 = system: DU-145
HCC 2998 = system: HCC 2998
SK-MEL-2 = system: SK-MEL-2
CAKI-1 = system: CAKI-1
SK-OV-3 = system: SK-OV-3
786-0 = system: 786-0
Hs-578T = system: Hs-578T
TK-10 = system: TK-10
KM12 = system: KM12

Compound | GI50 (OVCAR-5) | GI50 (NCI-H460) | GI50 (COLO 205) | GI50 (RXF 393) | GI50 (K562) | GI50 (NCI-H23) | GI50 (HOP-92) | GI50 (MOLT-4) | GI50 (RPMI-8226) | GI50 (SF-539) | GI50 (SK-MEL-5) | GI50 (DU-145) | GI50 (HCC 2998) | GI50 (SK-MEL-2) | GI50 (CAKI-1) | GI50 (SK-OV-3) | GI50 (786-0) | GI50 (Hs-578T) | GI50 (TK-10) | GI50 (KM12)
CCCCNc1nc(O)c2[nH]cnc2n1 | > 100 µM (inactive) | > 100 µM (inactive) | > 100 µM (inactive) | > 100 µM (inactive) | > 100 µM (inactive) | > 100 µM (inactive) | > 100 µM (inactive) | > 100 µM (inactive) | > 100 µM (inactive) | > 100 µM (inactive) | > 100 µM (inactive) | > 100 µM (inactive) | > 100 µM (inactive) | > 100 µM (inactive) | > 100 µM (inactive) | > 100 µM (inactive) | > 100 µM (inactive) | > 100 µM (inactive) | > 100 µM (inactive) | > 100 µM (inactive)
CC(C)[Si](OCC/C=C/C1CCC(=O)C1C(O)C1CCCCC1)(C(C)C)C(C)C (stereo not given) | 18.2 µM (inactive) | 17 µM (inactive) | 16.3 µM (inactive) | 8.89 µM (inactive) | 17.2 µM (inactive) | 15.6 µM (inactive) | 11.8 µM (inactive) | 12.5 µM (inactive) | 13.7 µM (inactive) | 19.8 µM (inactive) | 14.3 µM (inactive) | 16.4 µM (inactive) | 8.99 µM (inactive) | 12.9 µM (inactive) | 14.7 µM (inactive) | 15.7 µM (inactive) | 15.9 µM (inactive) | 18.1 µM (inactive) | 17.9 µM (inactive) | 15.9 µM (inactive)
COc1ccc(OC)c2c(=S)c3ccccc3[nH]c12 | > 94.8 µM (inactive) | > 63 µM (inactive) | 55.2 µM (inactive) | 54.6 µM (inactive) | 36.3 µM (inactive) | 99.8 µM (inactive) | > 100 µM (inactive) | 39.4 µM (inactive) | 37.9 µM (inactive) | > 79.1 µM (inactive) | 22.2 µM (inactive) | > 100 µM (inactive) | > 100 µM (inactive) | > 100 µM (inactive) | > 100 µM (inactive) | > 100 µM (inactive) | > 91.8 µM (inactive) | > 100 µM (inactive) | > 67.8 µM (inactive) | > 100 µM (inactive)
O/N=C1\CC2(N3CCOCC3)CCC1(c1ccccc1)CC2 | > 100 µM (inactive) | > 100 µM (inactive) | > 100 µM (inactive) | > 100 µM (inactive) | > 100 µM (inactive) | > 100 µM (inactive) | > 100 µM (inactive) | > 100 µM (inactive) | > 100 µM (inactive) | > 100 µM (inactive) | > 100 µM (inactive) | > 100 µM (inactive) | > 100 µM (inactive) | > 100 µM (inactive) | > 100 µM (inactive) | > 100 µM (inactive) | > 100 µM (inactive) | > 100 µM (inactive) | > 100 µM (inactive) | > 100 µM (inactive)
CCOC(=O)CCN1C(=O)C(=O)N(c2ccc(OC)cc2)C1=S | > 100 µM (inactive) | 53.5 µM (inactive) | > 100 µM (inactive) | > 100 µM (inactive) | 54.6 µM (inactive) | > 100 µM (inactive) | > 100 µM (inactive) | > 100 µM (inactive) | > 100 µM (inactive) | 97.7 µM (inactive) | > 100 µM (inactive) | > 100 µM (inactive) | 69.2 µM (inactive) | > 100 µM (inactive) | > 100 µM (inactive) | > 100 µM (inactive) | > 100 µM (inactive) | 47.1 µM (inactive) | > 100 µM (inactive) | 39.1 µM (inactive)
CCOC(=O)c1c(SCCN(CC)CC)n(-c2ccccc2)c(=S)n(-c2ccccc2)c1=O | 30.3 µM (inactive) | 6.93 µM (inactive) | 2.5 µM (inactive) | 1.72 µM (inactive) | 1.72 µM (inactive) | 15.9 µM (inactive) | 1.92 µM (inactive) | 1.09 µM (active) | 0.635 µM (active) | 4.48 µM (inactive) | 2.61 µM (inactive) | 1.68 µM (inactive) | 1.73 µM (inactive) | 13.4 µM (inactive) | 2.16 µM (inactive) | 19.3 µM (inactive) | 1.77 µM (inactive) | 3.32 µM (inactive) | 1.81 µM (inactive) | 14.3 µM (inactive)
CCOC1C=CC(=O)C(CO)O1 (stereo not given) | 18.1 µM (inactive) | 14.5 µM (inactive) | 13.4 µM (inactive) | 7.55 µM (inactive) | 6.67 µM (inactive) | 12.6 µM (inactive) | 2.57 µM (inactive) | 6.65 µM (inactive) | 2.14 µM (inactive) | 9.02 µM (inactive) | 21.1 µM (inactive) | 15.8 µM (inactive) | 17.4 µM (inactive) | 19.4 µM (inactive) | 13.4 µM (inactive) | 18.8 µM (inactive) | 4.26 µM (inactive) | 23.3 µM (inactive) | 8.43 µM (inactive) | 16.4 µM (inactive)
Oc1ccc(Cl)cc1-c1cc(-c2ccccc2)nc(NCN2CCCCC2)n1 | > 100 µM (inactive) | > 100 µM (inactive) | > 100 µM (inactive) | > 100 µM (inactive) | > 100 µM (inactive) | 72.1 µM (inactive) | > 100 µM (inactive) | > 100 µM (inactive) | > 100 µM (inactive) | > 100 µM (inactive) | 15.8 µM (inactive) | > 100 µM (inactive) | > 100 µM (inactive) | > 100 µM (inactive) | 8.81 µM (inactive) | > 100 µM (inactive) | > 100 µM (inactive) | > 100 µM (inactive) | > 100 µM (inactive) | 0.78 µM (active)
O=C(O)Cc1nc[nH]c1C(=O)O | > 100 µM (inactive) | > 100 µM (inactive) | > 100 µM (inactive) | > 100 µM (inactive) | > 100 µM (inactive) | > 100 µM (inactive) | > 100 µM (inactive) | > 100 µM (inactive) | > 100 µM (inactive) | > 100 µM (inactive) | > 100 µM (inactive) | > 100 µM (inactive) | > 100 µM (inactive) | > 100 µM (inactive) | > 100 µM (inactive) | > 100 µM (inactive) | > 100 µM (inactive) | > 100 µM (inactive) | > 100 µM (inactive) | > 100 µM (inactive)
Cc1c2cc[n+](C)cc2c(C)c2c1sc1ccccc12 | 3.86 µM (inactive) | 0.35 µM (active) | 1.07 µM (active) | 1.56 µM (inactive) | 2.26 µM (inactive) | 0.528 µM (active) | 1.3 µM (inactive) | 0.131 µM (active) | 1.22 µM (inactive) | 0.332 µM (active) | 1.39 µM (inactive) | 1.48 µM (inactive) | 1.44 µM (inactive) | 2.9 µM (inactive) | 3.46 µM (inactive) | 1.49 µM (inactive) | 0.204 µM (active) | 0.069 µM (active) | 13.4 µM (inactive) | 0.457 µM (active)
COC(=O)[C@]12CC=C3O[C@@H]4OC5(CCCCC5)O[C@@H]4[C@H]3C1C(=O)C=CC2=O (stereo not given in full) | 20.5 µM (inactive) | 22.3 µM (inactive) | 15.7 µM (inactive) | 8.73 µM (inactive) | 14.6 µM (inactive) | 17.1 µM (inactive) | 18.7 µM (inactive) | 7.03 µM (inactive) | 7.64 µM (inactive) | 19.6 µM (inactive) | 18.6 µM (inactive) | 21 µM (inactive) | 17.2 µM (inactive) | 22.2 µM (inactive) | 15.9 µM (inactive) | 30.7 µM (inactive) | 17 µM (inactive) | 26.1 µM (inactive) | 17.1 µM (inactive) | 10.9 µM (inactive)
O=CC(I)=C(c1ccccc1)c1ccccc1 | 21.8 µM (inactive) | 17.5 µM (inactive) | 18.3 µM (inactive) | 15.1 µM (inactive) | 18.5 µM (inactive) | 19.6 µM (inactive) | 18.9 µM (inactive) | 11.3 µM (inactive) | 8.51 µM (inactive) | 23.2 µM (inactive) | 17.3 µM (inactive) | 15.2 µM (inactive) | 19.7 µM (inactive) | 16.9 µM (inactive) | 16.2 µM (inactive) | 13.6 µM (inactive) | 14.8 µM (inactive) | 24.5 µM (inactive) | 19.5 µM (inactive) | 15 µM (inactive)
CC1(C)C2CCC3CC(CCC#N)CCC3C21C#N (stereo not given) | > 100 µM (inactive) | > 100 µM (inactive) | > 100 µM (inactive) | > 100 µM (inactive) | > 100 µM (inactive) | > 100 µM (inactive) | > 100 µM (inactive) | > 100 µM (inactive) | > 100 µM (inactive) | > 100 µM (inactive) | > 100 µM (inactive) | > 100 µM (inactive) | > 100 µM (inactive) | > 100 µM (inactive) | > 100 µM (inactive) | > 100 µM (inactive) | > 100 µM (inactive) | > 100 µM (inactive) | > 100 µM (inactive) | 18 µM (inactive)
Cc1cccc2c1NC(=S)[C@@H]1CCCN1C2=O | > 100 µM (inactive) | > 100 µM (inactive) | > 100 µM (inactive) | > 100 µM (inactive) | > 100 µM (inactive) | > 100 µM (inactive) | > 100 µM (inactive) | > 100 µM (inactive) | > 100 µM (inactive) | > 100 µM (inactive) | > 100 µM (inactive) | > 100 µM (inactive) | > 100 µM (inactive) | > 100 µM (inactive) | > 100 µM (inactive) | > 100 µM (inactive) | > 100 µM (inactive) | > 100 µM (inactive) | > 100 µM (inactive) | > 100 µM (inactive)

Source: ChEMBL document CHEMBL1201862, “PubChem BioAssay data set” (2004)
